From patent publication US20230212222A1 (ANYGEN CO., LTD., priority 2020, published 2023)
Square brackets hold non-standard residues; d marks the D form. Peptide text beside a SMILES is read from it. * marks the point of attachment. His(Trt) = N[C@@H](Cc1cn(C(c2ccccc2)(c2ccccc2)c2ccccc2)cn1)C(=O)O; His(τ-CHPh2) = N[C@@H](Cc1cn(C(c2ccccc2)c2ccccc2)cn1)C(=O)O; Biotin = O=C1N[C@H]2[C@H](CS[C@H]2CCCCC(=O)*)N1; Bip = N[C@@H](Cc1ccc(-c2ccccc2)cc1)C(=O)O; dPhe(4-Me) = Cc1ccc(C[C@@H](N)C(=O)O)cc1; d2Nal = N[C@H](Cc1ccc2ccccc2c1)C(=O)O; Octanoyl = CCCCCCCC(=O)*

Key:
[1] = biological target: T1, GPR39 (Homo sapiens, UniProt O43194)
T1 sequence (O43194 1-453): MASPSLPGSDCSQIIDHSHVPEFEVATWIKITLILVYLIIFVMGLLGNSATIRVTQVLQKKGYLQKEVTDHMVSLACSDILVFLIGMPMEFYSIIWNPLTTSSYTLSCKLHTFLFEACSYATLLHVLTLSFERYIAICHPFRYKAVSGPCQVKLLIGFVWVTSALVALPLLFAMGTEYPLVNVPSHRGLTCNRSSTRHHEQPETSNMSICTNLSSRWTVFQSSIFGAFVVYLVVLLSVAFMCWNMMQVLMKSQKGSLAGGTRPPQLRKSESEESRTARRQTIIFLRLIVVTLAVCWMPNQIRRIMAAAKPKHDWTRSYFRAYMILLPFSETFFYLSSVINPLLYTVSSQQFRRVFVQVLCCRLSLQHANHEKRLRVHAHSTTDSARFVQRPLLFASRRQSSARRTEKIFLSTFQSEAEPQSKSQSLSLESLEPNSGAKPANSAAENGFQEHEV
Description: (§1) Specifically, the fibroblast cell line CV-1 (1×10^5 cells/ml, Korea Cell Line Bank) was cultured in a 96 well cell culture plate for 24 hours, and then treated with GPR39 inserted into adenovirus and SRE (serum response element) luciferase at 50 MOI (multiplicity of infection) and 25 MOI virus for 3 hours, respectively, and then cultured for 24 hours.

[2] = biological target: T1, GPR39; assay: luciferase assay system (SRE luciferase reporter gene) for GPR39 in CV-1 cells; details: for EC50: EC50, CV-1 cells, GPR39 and SRE luciferase adenovirus, treated 6 hours, luminometer
Description: as §1

Question: Which “ECmax (-fold induction over basal)” value [1] does the source give for `CCCCCCCC(=O)NCCCC[C@H](NC(=O)[C@@H](N)Cc1cn(C(c2ccccc2)c2ccccc2)cn1)C(=O)N[C@H](Cc1ccc(C)cc1)C(=O)N[C@@H](Cc1ccc(O)cc1)C(N)=O` [HKFY-66, N-((S)-5-((S)-2-amino-3-(1-benzhydryl-1H-imidazol-4-yl)propanamido)-6-(((R)-1-(((S)-1-amino-3-(4-hydroxyphenyl)-1-oxopropan-2-yl)amino)-1-oxo-3-(p-tolyl)propan-2-yl)amino)-6-oxohexyl)octanamide] (H-[His(τ-CHPh2)]K(Octanoyl)[dPhe(4-Me)]Y-NH2) here?
Answer: 20.2 ± 3.5 -fold induction over basal

Question: What about the EC50 [2] of the same compound?
Answer: 11 ± 1 nM

Question: `CCCCCCCC(=O)NCCCC[C@H](NC(=O)[C@@H](N)Cc1cn(C(c2ccccc2)(c2ccccc2)c2ccccc2)cn1)C(=O)N[C@@H](Cc1ccccc1)C(=O)N[C@@H](Cc1c[nH]c2ccccc12)C(=O)O` [HKFY-46, N6-octanoyl-N2-(Nt-trityl-L-histidyl)-L-lysyl-L-phenylalanyl-L-tryptophan] (H-[His(Trt)]K(Octanoyl)FW-OH) was tested. Which “ECmax (-fold induction over basal)” value [1] did it give?
Answer: 20 ± 0.28 -fold induction over basal

Question: What about the EC50 [2] of the same compound?
Answer: 260 ± 150 nM

Question: How did the “ECmax (-fold induction over basal)” value [1] turn out when `CCCCCCCC(=O)NCCCC[C@H](NC(=O)[C@@H](N)Cc1cn(C(c2ccccc2)(c2ccccc2)c2ccc(C)cc2)cn1)C(=O)N[C@@H](Cc1ccccc1)C(=O)N[C@@H](Cc1ccc(O)cc1)C(=O)O` [HKFY-5, N2-(Nt-(diphenyl(p-tolyl)methyl)-L-histidyl)-N6-octanoyl-L-lysyl-L-phenylalanyl-L-tyrosine] was run?
Answer: 16 ± 1.7 -fold induction over basal

Question: And the EC50 [2]?
Answer: 1840 ± 200 nM

Question: With `CCCCCCCC(=O)NCCCC[C@H](NC(=O)[C@@H](N)Cc1cn(C(c2ccccc2)c2ccc(OC)cc2)cn1)C(=O)N[C@H](Cc1ccc(C)cc1)C(=O)N[C@@H](Cc1ccc(O)cc1)C(=O)O` (stereo partly drawn) [HKFY-64, ((2R)-2-((2S)-2-((2S)-2-amino-3-(1-((4-methoxyphenyl)(phenyl)methyl)-1H-imidazol-4-yl)propanamido)-6-octanamidohexanamido)-3-(p-tolyl)propanoyl)-L-tyrosine] as the compound, how does the “ECmax (-fold induction over basal)” value [1] read?
Answer: 16 ± 1.5 -fold induction over basal

Question: What about the EC50 [2] of the same compound?
Answer: 7 ± 1 nM

Question: What about the “activity level for GPR39 (in words)” value ([2]; comment on Table 3) of the same compound?
Answer: higher activity level than other HJKFY derivatives

Question: Which results are given for `CCCCCCCC(=O)NCCCC[C@H](NC(=O)[C@H](Cc1cn(C(c2ccccc2)(c2ccccc2)c2ccccc2)cn1)NC(=O)CCCC[C@@H]1SC[C@@H]2NC(=O)N[C@@H]21)C(=O)N[C@@H](Cc1ccc(-c2ccccc2)cc1)C(=O)N[C@@H](Cc1ccc(O)cc1)C(=O)O` [HKFY-45, ((S)-3-([1,1′-biphenyl]-4-yl)-2-((S)-6-octanamido-2-((S)-2-(5-((3aS,4S,6aR)-2-oxohexahydro-1H-thieno[3,4-d]imidazol-4-yl)pentanamido)-3-(1-trityl-1H-imidazol-4-yl)propanamido)hexanamido)propanoyl)-L-tyrosine] (Biotin-[His(Trt)]K(Octanoyl)[Bip]Y-OH)?
Answer: ECmax (-fold induction over basal) [1]: 21 ± 2.58 -fold induction over basal; EC50 [2]: 140 ± 50 nM

Question: For `CCCCCCCC(=O)NCCCC[C@H](NC(=O)[C@@H](N)Cc1cn(C(c2ccccc2)(c2ccccc2)c2ccccc2)cn1)C(=O)N[C@H](Cc1ccc2ccccc2c1)C(=O)N[C@@H](Cc1ccc(O)cc1)C(=O)O` [HKFY-74, ((R)-2-((S)-2-((S)-2-amino-3-(1-trityl-1H-imidazol-4-yl)propanamido)-6-octanamidohexanamido)-3-(naphthalen-2-yl)propanoyl)-L-tyrosine] (H-[His(Trt)]K(Octanoyl)[d2Nal]Y-OH), which “ECmax (-fold induction over basal)” value [1] is on record?
Answer: 18.8 ± 3.2 -fold induction over basal

Question: And the EC50 [2]?
Answer: 8 ± 1 nM
